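Assay format: 96-well plates, 48-hour exposure. Abbreviation: GI50, concentration required for 50% inhibition of growth.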 Active and inactive are the calls of the source. No stated cut-off is given here; in the data, active = GI50 up to about 1.1 µM and inactive = higher. Starred links: 1 amine or outer side, 2 acyl side, 3 side chain; linkers in the order of their positions; H or OH if unused. Positions of bridges follow the written chain, without caps; N, C: chain ends. Non-standard residues stand in square brackets, D forms with d. Residues, ends and D or L forms follow the SMILES beside them. Chains are numbered I, II in the order given. Actinocin(1to9) = Cc1c2oc3c(C)ccc(C(=O)[*:2])c3nc-2c(C(=O)[*:1])c(N)c1=O; NMeV = CN[CH](C(=O)O)C(C)C; Sar = CNCC(=O)O
Legend:
Test in all cases: DTP human tumour cell line panel, 48 h
M14 = test system: M14
MDA-MB-435 = test system: MDA-MB-435
IGROV-1 = test system: IGROV-1
RXF 393 = test system: RXF 393
SK-MEL-28 = test system: SK-MEL-28
RPMI-8226 = test system: RPMI-8226
EKVX = test system: EKVX
NCI-H23 = test system: NCI-H23
PC-3 = test system: PC-3
NCI-H460 = test system: NCI-H460
SN12C = test system: SN12C
MDA-MB-231 = test system: MDA-MB-231
SNB-19 = test system: SNB-19
OVCAR-4 = test system: OVCAR-4
SK-MEL-2 = test system: SK-MEL-2
SF-539 = test system: SF-539
BT-549 = test system: BT-549
SW-620 = test system: SW-620
MCF7 = test system: MCF7
MOLT-4 = test system: MOLT-4
ACHN = test system: ACHN
SK-OV-3 = test system: SK-OV-3
MDA-N = test system: MDA-N
T47D = test system: T47D
SK-MEL-5 = test system: SK-MEL-5
UO-31 = test system: UO-31
OVCAR-3 = test system: OVCAR-3
TK-10 = test system: TK-10
A549 = test system: A549
CAKI-1 = test system: CAKI-1
786-0 = test system: 786-0
SR = test system: SR
UACC-257 = test system: UACC-257
UACC-62 = test system: UACC-62
NCI-H226 = test system: NCI-H226
Hs-578T = test system: Hs-578T
KM12 = test system: KM12
LOX IMVI = test system: LOX IMVI
COLO 205 = test system: COLO 205
OVCAR-5 = test system: OVCAR-5
HCT-116 = test system: HCT-116
SF-268 = test system: SF-268
HCC 2998 = test system: HCC 2998
SF-295 = test system: SF-295
HCT-15 = test system: HCT-15
CCRF-CEM = test system: CCRF-CEM
Malme-3M = test system: Malme-3M
HOP-62 = test system: HOP-62
HOP-92 = test system: HOP-92
OVCAR-8 = test system: OVCAR-8
HT-29 = test system: HT-29
NCI-H522 = test system: NCI-H522
U-251 = test system: U-251
A498 = test system: A498
HL-60 = test system: HL-60
SNB-75 = test system: SNB-75
NCI/ADR-RES = test system: NCI/ADR-RES
K562 = test system: K562
DU-145 = test system: DU-145

CN1CSC(=S)N(c2c3ccccc3nc3ccc(Br)cc23)C1
GI50 (M14): 13.1 µM (inactive)
GI50 (MDA-MB-435): 8.67 µM (inactive)
GI50 (IGROV-1): 10.8 µM (inactive)
GI50 (RXF 393): 11.9 µM (inactive)
GI50 (SK-MEL-28): 16.9 µM (inactive)
GI50 (RPMI-8226): 7.71 µM (inactive)
GI50 (EKVX): 12.9 µM (inactive)
GI50 (NCI-H23): 10 µM (inactive)
GI50 (PC-3): 8.77 µM (inactive)
GI50 (NCI-H460): 3.83 µM (inactive)
GI50 (SN12C): 5.31 µM (inactive)
GI50 (MDA-MB-231): 8.45 µM (inactive)
GI50 (SNB-19): 12.5 µM (inactive)
GI50 (OVCAR-4): 7.11 µM (inactive)
GI50 (SK-MEL-2): 13 µM (inactive)
GI50 (SF-539): 11.6 µM (inactive)
GI50 (BT-549): 15.4 µM (inactive)
GI50 (SW-620): 3.89 µM (inactive)
GI50 (MCF7): 5.83 µM (inactive)
GI50 (MOLT-4): 0.783 µM (active)
GI50 (ACHN): 6.59 µM (inactive)
GI50 (SK-OV-3): 12.9 µM (inactive)
GI50 (MDA-N): 10.4 µM (inactive)
GI50 (T47D): 11.6 µM (inactive)
GI50 (SK-MEL-5): 12.4 µM (inactive)
GI50 (UO-31): 9.06 µM (inactive)
GI50 (OVCAR-3): 16.7 µM (inactive)
GI50 (TK-10): 9.51 µM (inactive)
GI50 (A549): 6.22 µM (inactive)
GI50 (CAKI-1): 5.41 µM (inactive)
GI50 (786-0): 4.7 µM (inactive)
GI50 (SR): 0.796 µM (active)
GI50 (UACC-257): 12.1 µM (inactive)
GI50 (UACC-62): 14 µM (inactive)
GI50 (NCI-H226): 10 µM (inactive)
GI50 (Hs-578T): 17.8 µM (inactive)
GI50 (KM12): 7.11 µM (inactive)
GI50 (LOX IMVI): 7.83 µM (inactive)
GI50 (COLO 205): 6.43 µM (inactive)
GI50 (OVCAR-5): 13.7 µM (inactive)
GI50 (HCT-116): 4.28 µM (inactive)
GI50 (SF-268): 9.64 µM (inactive)
GI50 (HCC 2998): 2.79 µM (inactive)
GI50 (SF-295): 6.7 µM (inactive)
GI50 (HCT-15): 6.4 µM
GI50 (CCRF-CEM): 4.08 µM (inactive)
GI50 (Malme-3M): 16.7 µM (inactive)
GI50 (HOP-62): 7.87 µM (inactive)
GI50 (HOP-92): 16.3 µM (inactive)
GI50 (OVCAR-8): 7.93 µM (inactive)
GI50 (HT-29): 5.42 µM (inactive)
GI50 (NCI-H522): 4.4 µM (inactive)
GI50 (U-251): 7.13 µM (inactive)
GI50 (A498): 13.6 µM (inactive)
GI50 (HL-60): 11.1 µM (inactive)
GI50 (SNB-75): 8.99 µM (inactive)
GI50 (NCI/ADR-RES): 7.67 µM (inactive)
GI50 (K562): 2.32 µM (inactive)
GI50 (DU-145): 8.09 µM (inactive)

CCC(C)C1NC(=O)C(NC(=O)c2c3nc4c(C(=O)NC5C(=O)NC(C(C)CC)C(=O)N6CCCC6C(=O)N(C)CC(=O)N(C)C(C(C)C)C(=O)OC5C)ccc(C)c4oc-3c(C)c(=O)c2N)C(C)OC(=O)C(C(C)C)N(C)C(=O)CN(C)C(=O)C2CCCN2C1=O (stereo not drawn) (I: TIP[Sar][NMeV] / II: TIP[Sar][NMeV]; ester I:1-I:C, II:1-II:C; linker I:N-II:N via Actinocin(1to9); configuration not given here)
GI50 (M14): < 0.00995 µM (active)
GI50 (MDA-MB-435): 0.000539 µM (active)
GI50 (IGROV-1): < 0.0001 µM (active)
GI50 (RXF 393): 0.00394 µM (active)
GI50 (SK-MEL-28): 0.00011 µM (active)
GI50 (RPMI-8226): 0.000143 µM (active)
GI50 (EKVX): 0.0145 µM (active)
GI50 (NCI-H23): 0.00133 µM (active)
GI50 (PC-3): 0.000895 µM (active)
GI50 (NCI-H460): < 0.0001 µM (active)
GI50 (SN12C): 0.000282 µM (active)
GI50 (MDA-MB-231): 0.00561 µM (active)
GI50 (SNB-19): < 0.0001 µM (active)
GI50 (OVCAR-4): 0.00625 µM (active)
GI50 (SK-MEL-2): 0.00101 µM (active)
GI50 (SF-539): < 0.0001 µM (active)
GI50 (BT-549): 0.0105 µM (active)
GI50 (SW-620): 0.000236 µM (active)
GI50 (MCF7): < 0.0001 µM (active)
GI50 (MOLT-4): < 0.0001 µM (active)
GI50 (ACHN): 0.00162 µM (active)
GI50 (SK-OV-3): 0.0208 µM (active)
GI50 (MDA-N): < 0.01 µM (active)
GI50 (T47D): 0.00173 µM (active)
GI50 (SK-MEL-5): 0.000198 µM (active)
GI50 (UO-31): 0.0204 µM (active)
GI50 (OVCAR-3): 0.00184 µM (active)
GI50 (TK-10): 0.0147 µM (active)
GI50 (A549): 0.000753 µM (active)
GI50 (CAKI-1): 0.0059 µM (active)
GI50 (786-0): 0.000195 µM (active)
GI50 (SR): < 0.0001 µM (active)
GI50 (UACC-257): < 0.0001 µM (active)
GI50 (UACC-62): 0.000169 µM (active)
GI50 (NCI-H226): 0.000889 µM (active)
GI50 (Hs-578T): 0.0065 µM (active)
GI50 (KM12): 0.00107 µM (active)
GI50 (LOX IMVI): < 0.0001 µM (active)
GI50 (COLO 205): < 0.0001 µM (active)
GI50 (OVCAR-5): 0.00459 µM (active)
GI50 (HCT-116): < 0.0001 µM (active)
GI50 (SF-268): 0.00322 µM (active)
GI50 (HCC 2998): 0.013 µM (active)
GI50 (SF-295): 0.000477 µM (active)
GI50 (HCT-15): 0.0172 µM
GI50 (CCRF-CEM): < 0.0001 µM (active)
GI50 (Malme-3M): 0.000156 µM (active)
GI50 (HOP-62): < 0.0001 µM (active)
GI50 (HOP-92): 0.00255 µM (active)
GI50 (OVCAR-8): 0.000262 µM (active)
GI50 (HT-29): < 0.0001 µM (active)
GI50 (NCI-H522): < 0.0001 µM (active)
GI50 (U-251): < 0.0001 µM (active)
GI50 (A498): 0.0102 µM (active)
GI50 (HL-60): < 0.0001 µM (active)
GI50 (SNB-75): 0.00319 µM (active)
GI50 (NCI/ADR-RES): 0.296 µM (active)
GI50 (K562): < 0.0001 µM (active)
GI50 (DU-145): 0.011 µM (active)

From ChEMBL document CHEMBL1201862, “PubChem BioAssay data set” (2004)
